Several values for one entry are separate records, joined by “and”; a condition that tells them apart may be missing. Identical values can stand only once.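 Where inhibition never reached the appropriate level, the endpoint shown equals the highest concentration tested. Otherwise, values were interpolated linearly from a five-concentration, 48-hour dose response in 96-well plates. At the GI50, growth is halved.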 Activity calls are given as the source filed them. No stated cut-off is given here; in the data, active = GI50 up to about 1.1 µM and inactive = higher.
Tests used:
Experiment in all cases: NCI-60 cell line screen, 48 h
[1] = system: A549
[2] = system: COLO 205
[3] = system: DU-145
[4] = system: EKVX
[5] = system: HCC 2998
[6] = system: HL-60
[7] = system: HOP-92
[8] = system: HT-29
[9] = system: Hs-578T
[10] = system: IGROV-1
[11] = system: KM12
[12] = system: MCF7
[13] = system: MDA-MB-435
[14] = system: MOLT-4
[15] = system: NCI-H460
[16] = system: OVCAR-4
[17] = system: OVCAR-8
[18] = system: RXF 393
[19] = system: SF-268
[20] = system: SF-295
[21] = system: SK-MEL-28
[22] = system: SK-MEL-2
[23] = system: SK-OV-3
[24] = system: SN12C
[25] = system: SNB-19
[26] = system: SNB-75
[27] = system: T47D
[28] = system: 786-0
[29] = system: A498
[30] = system: ACHN
[31] = system: CAKI-1
[32] = system: CCRF-CEM
[33] = system: HCT-116
[34] = system: HCT-15
[35] = system: HOP-62
[36] = system: K562
[37] = system: LOX IMVI
[38] = system: M14
[39] = system: MDA-MB-231
[40] = system: MDA-N
[41] = system: Malme-3M
[42] = system: NCI-H226
[43] = system: NCI-H23
[44] = system: NCI-H522
[45] = system: NCI/ADR-RES
[46] = system: OVCAR-3
[47] = system: OVCAR-5
[48] = system: PC-3
[49] = system: RPMI-8226
[50] = system: SF-539
[51] = system: SW-620
[52] = system: TK-10
[53] = system: U-251
[54] = system: UACC-257
[55] = system: UACC-62
[56] = system: UO-31
[57] = system: SK-MEL-5
[58] = system: SR

Measured: GI50

COc1cc2c(cc1OCCOS(C)(=O)=O)N=C[C@@H]1CCCN1C2=O
inactive: [1] > 100 µM | [2] 24.1 µM | [3] 27.3 µM | [4] 32.7 µM | [5] 30.7 µM | [6] 26.9 µM | [7] 21.4 µM | [8] 36.8 µM | [9] 27.5 µM | [10] 27.7 µM | [11] 33.9 µM | [12] 39 µM | [13] 20.3 µM | [14] 21.9 µM | [15] 97.7 µM | [16] 22.2 µM | [17] 32.1 µM | [18] 29.7 µM | [19] 70.1 µM | [20] 23.3 µM | [21] 23.8 µM | [22] 29.4 µM | [23] > 100 µM | [24] 26 µM | [25] 45.3 µM | [26] 54.1 µM | [27] 40.7 µM

CC(=O)c1nc(C#N)c(N)o1
> 100 µM: [34]
inactive: [28] > 100 µM | [29] > 100 µM | [1] > 100 µM | [30] > 100 µM | [31] > 100 µM | [32] > 100 µM | [2] > 100 µM | [3] > 100 µM | [4] > 100 µM | [5] > 100 µM | [33] > 100 µM | [35] > 100 µM | [7] > 100 µM | [8] > 100 µM | [9] > 100 µM | [10] > 100 µM | [36] > 100 µM | [11] > 100 µM | [37] > 100 µM | [38] > 100 µM | [12] > 100 µM | [39] > 100 µM | [13] > 100 µM | [40] > 100 µM | [14] > 100 µM | [41] > 100 µM | [42] > 100 µM | [43] > 100 µM | [15] > 100 µM | [44] > 100 µM | [45] > 100 µM | [46] > 100 µM | [16] > 100 µM | [47] > 100 µM | [17] > 100 µM | [48] > 100 µM | [49] > 100 µM | [18] > 100 µM | [19] > 100 µM | [20] > 100 µM | [50] > 100 µM | [21] > 100 µM | [22] > 100 µM | [23] > 100 µM | [24] > 100 µM | [25] > 100 µM | [26] > 100 µM | [51] > 100 µM | [27] > 100 µM | [52] > 100 µM | [53] > 100 µM | [54] > 100 µM | [55] > 100 µM | [56] > 100 µM

CSc1ccc(C(=C=C=C(c2ccc(SC)s2)c2ccc(SC)s2)c2ccc(SC)s2)s1
inactive: [29] > 10 µM | [1] > 10 µM | [30] > 10 µM | [31] > 10 µM | [2] > 10 µM | [3] > 10 µM | [4] > 10 µM | [33] > 10 µM | [7] > 10 µM | [8] > 10 µM | [10] > 10 µM | [11] > 10 µM | [38] > 10 µM | [39] > 10 µM | [13] > 10 µM | [40] > 10 µM | [42] > 10 µM | [43] > 10 µM | [45] > 10 µM | [46] > 10 µM | [16] > 10 µM | [47] > 10 µM | [17] > 10 µM | [48] > 10 µM | [18] > 10 µM | [19] > 10 µM | [20] > 10 µM | [50] > 10 µM | [21] > 10 µM | [57] > 10 µM | [24] > 10 µM | [25] > 10 µM | [26] > 10 µM | [51] > 10 µM | [52] > 10 µM | [53] > 10 µM | [56] > 10 µM
> 10 µM: [34]

O=C(c1ccc(Cl)c(Cl)c1)N1CCN(C(=O)c2ccc(Cl)c(Cl)c2)C1=S
inactive: [49] 1.83 µM

O=C1C=C2C=CC3CC2(O1)C1CCCCN31 (stereo not given)
inactive: [5] 16.8 µM and 20.3 µM and 27.3 µM | [6] 17.2 µM | [7] 12.7 µM and 18.3 µM and 22.8 µM | [11] 19.2 µM and 14.8 µM and 12.5 µM | [41] 14.9 µM | [17] 17.3 µM and 28.3 µM and 19.1 µM | [48] 21.5 µM and 40.4 µM and 25.1 µM | [20] 23.3 µM and 35.3 µM and 45.2 µM | [22] 28.1 µM and 16.8 µM and 27.9 µM | [23] 20.5 µM and 33.7 µM and 30.6 µM | [25] 28.3 µM and 32.4 µM and 18.7 µM

NNC(=O)Nc1cccnc1
inactive: [28] > 100 µM | [29] > 100 µM | [1] > 100 µM | [30] > 100 µM | [31] > 100 µM | [32] > 100 µM | [2] > 100 µM | [3] > 100 µM | [4] > 100 µM | [5] > 100 µM | [33] > 100 µM | [6] > 100 µM | [35] > 100 µM | [7] > 100 µM | [8] > 100 µM | [10] > 100 µM | [36] > 100 µM | [11] > 100 µM | [37] > 100 µM | [38] > 100 µM | [12] > 100 µM | [39] > 100 µM | [13] > 100 µM | [40] > 100 µM | [14] > 10 µM | [41] > 100 µM | [42] > 100 µM | [43] > 100 µM | [44] > 100 µM | [45] > 100 µM | [46] > 100 µM | [16] > 100 µM | [47] > 100 µM | [17] > 100 µM | [48] > 100 µM | [49] > 100 µM | [18] > 100 µM | [20] > 100 µM | [50] > 100 µM | [21] > 100 µM | [22] > 100 µM | [57] > 100 µM | [23] > 100 µM | [24] > 100 µM | [25] > 100 µM | [26] > 100 µM | [51] > 100 µM | [27] > 100 µM | [52] > 100 µM | [53] > 100 µM | [54] > 100 µM | [55] > 100 µM | [56] > 100 µM
> 100 µM: [34]

CCn1cc(C(=O)O)c(=O)c2ccc(C)nc21 [NALIDIXIC ACID]
inactive: [28] > 100 µM | [1] > 100 µM | [30] > 100 µM | [31] > 100 µM | [32] > 100 µM | [2] > 100 µM | [3] > 100 µM | [4] > 100 µM | [5] > 100 µM | [33] > 100 µM | [6] > 100 µM | [35] > 100 µM | [7] 26.9 µM | [8] > 100 µM | [9] > 100 µM | [10] > 100 µM | [36] > 100 µM | [11] > 100 µM | [37] > 100 µM | [38] > 100 µM | [12] > 100 µM | [39] > 100 µM | [13] > 100 µM | [40] > 100 µM | [14] > 100 µM | [41] > 100 µM | [42] > 100 µM | [43] > 100 µM | [15] > 100 µM | [44] > 100 µM | [45] > 100 µM | [46] > 100 µM | [16] > 100 µM | [47] > 100 µM | [17] > 100 µM | [48] > 100 µM | [49] > 100 µM | [19] > 100 µM | [20] > 100 µM | [50] > 100 µM | [21] > 100 µM | [22] > 100 µM | [57] > 100 µM | [24] > 100 µM | [25] > 100 µM | [26] 97.3 µM | [58] > 100 µM | [51] > 100 µM | [27] > 100 µM | [52] > 100 µM | [53] > 100 µM | [54] > 100 µM | [56] 67 µM
> 100 µM: [34]

Source: ChEMBL document CHEMBL1201862, “PubChem BioAssay data set” (2004)
